From PMC12260505, “First-in-Human Phase I/IIa Study of the First-in-Class CDK2/4/6 Inhibitor PF-06873600 Alone or with Endocrine Therapy in Patients with Breast Cancer” (Clinical Cancer Research, 2025)

Test: Adverse events graded by NCI CTCAE version 4.03, phase I/IIa study
Format: in vivo
Experimental: Part 1 included adult patients with HR^+/HER2^− advanced breast cancer or mBC (third- or fourth-line setting), locally recurrent/advanced or metastatic TNBC, or advanced platinum-resistant epithelial ovarian cancer/fallopian tube cancer/primary peritoneal cancer who received oral PF-06873600 at doses of 1 to 50 mg twice daily or oral PF-06873600 plus ET (letrozole or fulvestrant). Primary endpoints for part 1 dose escalation determined safety and tolerability to define dose-limiting toxicities (DLT), estimate the maximum tolerated dose, and select the recommended dose for expansion (RDE). Safety endpoints included adverse events (AE) characterized by type, frequency, severity [as graded by NCI Common Terminology Criteria for Adverse Events (CTCAE) version 4.03], timing, seriousness, and relationship to study therapy. Laboratory abnormalities were characterized by type, frequency, severity (as graded by NCI CTCAE version 4.03), timing, vital sign abnormalities, and heart rate–corrected QT interval (e.g., QTcF). Secondary endpoints included PK, preliminary antitumor activity as assessed using RECIST version 1.1, time-to-event endpoints including objective response rate (ORR), duration of response (DoR), progression-free survival (PFS), time to progression (TTP), and modulation of tumor CDK biomarkers [phosphorylated Rb (pRb), Ki67]. Exploratory endpoints included molecular profiling of tumor and ctDNA and the relationship to clinical outcome.
AEs were graded by NCI CTCAE version 4.03.

[1] = parts 1 and 2, N = 151, all cycles

For `C[C@@]1(O)CCC[C@H]1n1c(=O)c(C(F)F)cc2cnc(NC3CCN(S(C)(=O)=O)CC3)nc21` [PF-06873600], the “Treatment-related SAE, stomatitis” value (parts 1 and 2, 151 patients) was 1.3%, the “Treatment-related SAEs, patients” value (parts 1 and 2, 151 patients) was 8.6% and the “Treatment-related TEAE, Alopecia, Grade 1” value [1] was 21 (13.9) n (%). The “Treatment-related TEAE, Alopecia, Grade 2” value [1] was 21 (13.9) n (%), the “Treatment-related TEAE, Alopecia, Grade 3/4” value [1] was 0 n (%) and the “Treatment-related TEAE, Alopecia, Grade 5” value [1] was 0 n (%). The “Treatment-related TEAE, Alopecia, Total” value [1] was 42 (27.8) n (%), the “Treatment-related TEAE, Anemia, Grade 1” value [1] was 13 (8.6) n (%) and the “Treatment-related TEAE, Anemia, Grade 2” value [1] was 28 (18.5) n (%). The “Treatment-related TEAE, Anemia, Grade 3/4” value [1] was 21 (13.9) n (%), the “Treatment-related TEAE, Anemia, Grade 5” value [1] was 0 n (%) and the “Treatment-related TEAE, Anemia, Total” value [1] was 62 (41.1) n (%). The “Treatment-related TEAE, Any AE, Grade 1” value [1] was 27 (17.9) n (%), the “Treatment-related TEAE, Any AE, Grade 2” value [1] was 55 (36.4) n (%) and the “Treatment-related TEAE, Any AE, Grade 3/4” value [1] was 54 (35.8) n (%). For the same compound, the “Treatment-related TEAE, Any AE, Grade 5” value [1] was 2 (1.3) n (%), the “Treatment-related TEAE, Any AE, Total” value [1] was 138 (91.4) n (%) and the “Treatment-related TEAE, Constipation, Grade 1” value [1] was 13 (8.6) n (%). For the same compound, the “Treatment-related TEAE, Constipation, Grade 2” value [1] was 10 (6.6) n (%), the “Treatment-related TEAE, Constipation, Grade 3/4” value [1] was 0 n (%) and the “Treatment-related TEAE, Constipation, Grade 5” value [1] was 0 n (%). The “Treatment-related TEAE, Constipation, Total” value [1] was 23 (15.2) n (%), the “Treatment-related TEAE, Diarrhea, Grade 1” value [1] was 21 (13.9) n (%) and the “Treatment-related TEAE, Diarrhea, Grade 2” value [1] was 4 (2.6) n (%). The “Treatment-related TEAE, Diarrhea, Grade 3/4” value [1] was 2 (1.3) n (%), the “Treatment-related TEAE, Diarrhea, Grade 5” value [1] was 0 n (%) and the “Treatment-related TEAE, Diarrhea, Total” value [1] was 27 (17.9) n (%). The “Treatment-related TEAE, Fatigue, Grade 1” value [1] was 23 (15.2) n (%), the “Treatment-related TEAE, Fatigue, Grade 2” value [1] was 25 (16.6) n (%) and the “Treatment-related TEAE, Fatigue, Grade 3/4” value [1] was 12 (7.9) n (%). The “Treatment-related TEAE, Fatigue, Grade 5” value [1] was 0 n (%), the “Treatment-related TEAE, Fatigue, Total” value [1] was 60 (39.7) n (%) and the “Treatment-related TEAE, Headache, Grade 1” value [1] was 28 (18.5) n (%). For the same compound, the “Treatment-related TEAE, Headache, Grade 2” value [1] was 4 (2.6) n (%), the “Treatment-related TEAE, Headache, Grade 3/4” value [1] was 0 n (%) and the “Treatment-related TEAE, Headache, Grade 5” value [1] was 0 n (%). For the same compound, the “Treatment-related TEAE, Headache, Total” value [1] was 32 (21.2) n (%), the “Treatment-related TEAE, Leukopenia, Grade 1” value [1] was 5 (3.3) n (%) and the “Treatment-related TEAE, Leukopenia, Grade 2” value [1] was 23 (15.2) n (%). For the same compound, the “Treatment-related TEAE, Leukopenia, Grade 3/4” value [1] was 9 (6.0) n (%), the “Treatment-related TEAE, Leukopenia, Grade 5” value [1] was 0 n (%) and the “Treatment-related TEAE, Leukopenia, Total” value [1] was 37 (24.5) n (%). For the same compound, the “Treatment-related TEAE, Nausea, Grade 1” value [1] was 65 (43.0) n (%), the “Treatment-related TEAE, Nausea, Grade 2” value [1] was 26 (17.2) n (%) and the “Treatment-related TEAE, Nausea, Grade 3/4” value [1] was 1 (0.7) n (%). For the same compound, the “Treatment-related TEAE, Nausea, Grade 5” value [1] was 0 n (%), the “Treatment-related TEAE, Nausea, Total” value [1] was 92 (60.9) n (%) and the “Treatment-related TEAE, Neutropenia, Grade 1” value [1] was 6 (4.0) n (%). For the same compound, the “Treatment-related TEAE, Neutropenia, Grade 2” value [1] was 19 (12.6) n (%), the “Treatment-related TEAE, Neutropenia, Grade 3/4” value [1] was 31 (20.5) n (%) and the “Treatment-related TEAE, Neutropenia, Grade 5” value [1] was 0 n (%). For the same compound, the “Treatment-related TEAE, Neutropenia, Total” value [1] was 56 (37.1) n (%), the “Treatment-related TEAE, Thrombocytopenia, Grade 1” value [1] was 16 (10.6) n (%) and the “Treatment-related TEAE, Thrombocytopenia, Grade 2” value [1] was 4 (2.6) n (%). For the same compound, the “Treatment-related TEAE, Thrombocytopenia, Grade 3/4” value [1] was 9 (6.0) n (%), the “Treatment-related TEAE, Thrombocytopenia, Grade 5” value [1] was 0 n (%) and the “Treatment-related TEAE, Thrombocytopenia, Total” value [1] was 29 (19.2) n (%). For the same compound, the “Treatment-related TEAE, Vomiting, Grade 1” value [1] was 38 (25.2) n (%), the “Treatment-related TEAE, Vomiting, Grade 2” value [1] was 12 (7.9) n (%) and the “Treatment-related TEAE, Vomiting, Grade 3/4” value [1] was 1 (0.7) n (%). For the same compound, the “Treatment-related TEAE, Vomiting, Grade 5” value [1] was 0 n (%) and the “Treatment-related TEAE, Vomiting, Total” value [1] was 51 (33.8) n (%).
